The text below walks through data of patent US6335339B1, “Triazine antiviral compounds” (Scriptgen Pharmaceuticals, Inc., priority 1998, dated 2002).

One test concerns HIV derived RRE RNA. The test can be described thus: heterologous hybridization inhibition assay with RRE RNA. In kind it is binding. The following applies: radiolabeled RRE RNA, rRNA competitor. The source says: Specificity is further tested in a third assay in which the radiolabeled RNA is the HIV derived RRE RNA and the biotinylated oligonucleotide is complementary to RRE. Compounds with high specific activity for εRNA are not expected to be inhibitory in the RRE RNA based assay. The specificity of the ligand for εRNA is expressed as the ratio between the IC50 value obtained with the specific target RNA and the IC50 value obtained with a heterologous target (RRE RNA), both in the presence of competitor RNA.
(§1) Biotinylated oligonucleotides 262.104 A (5′-biotin-TTAGGCACAGCTTGGAGGCTTGAACAGTG-3′) and 208.92 A (5′-biotin-CGTCATTGACGCTGCGCCCA-3′) were synthetically prepared (Oligos Etc., Willsonville, Oreg.). These oligonucleotides are complementary to regions of the εRNA and RRE RNA targets, respectively.
Compounds that inhibited the primary screening assay described above were individually titrated in the same assay at concentrations between 0.1 μM and 200 μM in the absence and presence of 60-fold excess rRNA as a non-specific competitor. A third titration was performed in a heterologous assay using radiolabeled RRE RNA as the target and the complementary biotinylated oligonucleotide 208.92 A. From these three assays, the IC50 values and specificity for each compound was calculated.
IC50 values using rRNA competitor (from Example 1) and radiolabeled RRE RNA are shown in Table 1 for the following ligands. […] Specificity is calculated as the ratio of RRE+rRNA IC50/εRNA+rRNA IC50.

The next test deals with HBV εRNA. As to the kind of experiment: εRNA/oligonucleotide hybridization inhibition assay with rRNA competitor. In kind it is binding, Hepatitis B virus. The following applies: for IC50: radiolabeled εRNA, 60-fold excess rRNA competitor; for Specificity: ratio RRE+rRNA IC50/εRNA+rRNA IC50, max = inactive in RRE assay.
Source text: One assay used in determining the activity of the compounds of the present invention is disclosed in copending U.S. patent application Ser. No. 08/709,342, filed Sep. 6, 1996, the disclosure of which is hereby incorporated herein by reference in its entirety. The assay detects the interaction between target RNA molecule and a test ligand by measuring the ligand's ability to inhibit hybridization between the RNA and a specific complementary oligonucleotide. In one embodiment, the target RNA is radiolabelled and the oligonucleotide is labeled with biotin; in this case, the extent of hybridization is determined by measuring the amount of radiolabeled RNA detected with a streptavidin/biotin-based capture system.
Concentrations of test compounds of between about 0.1 μM and about 200 μM are assayed for inhibition using radiolabeled εRNA in the absence or presence of a large excess of an unlabeled non-specific RNA competitor (such as, e.g., ribosomal RNA, rRNA). Compounds that bind εRNA non-specifically are competitively displaced by the rRNA, resulting in reduced or no inhibition of hybridization between the radiolabeled εRNA and the biotinylated oligonucleotide. Conversely, the inhibitory activity of compounds that specifically bind εRNA is not affected by the presence of the competitor rRNA.
The high throughput assays were performed in 96-well plates containing eighty drugs (5 μl, 60 μg/ml in DMSO) distributed one per well in columns 2-6 and 8-12 of the 8×12 96-well array. The remaining 16 wells in columns 1 and 7 were filled with 5 μl DMSO to serve as the control reactions. 45 μl of reaction mixture containing buffer, salts and radiolabeled target RNA were delivered on each well of the compound-containing plates to yield a 50 μl mixture containing 50 mM Tris-HCl, pH 7.5, 200 mM KCl, 5 mM MgCl2, 5 mM DTT, 6 μg/ml test compound, and 25 nM [^32 P]-labeled εRNA. The reaction was started by addition of the biotinylated oligonucleotide, 262.104 A (5 μl) to a final concentration of 100 nM. The reaction was incubated at 25° C. for 60 minutes, and then 5 μl of 0.3 mg/ml SAAP (streptavidin alkaline phosphatase conjugate, Pierce, Rockford, Ill.) was added. The reaction was incubated for an additional 30 minutes at 25° C. and filtered through 96-well format HATF nitrocellulose filters (Millipore, Bedford, Mass.) using a multiscreen vacuum manifold (Millipore, Bedford, Mass.). Subsequently, 300 μl of wash buffer (50 mM Tris-HCl, pH 7.5, 200 mM KCl) was filtered through to wash the filters. The filters were dried and supplemented with 20 μl scintillation fluid (Super Mix, Wallac Oy, Turku, Finland). The amount of hybrids formed was determined by scintillation counting of the radiolabeled εRNA retained on the filters.
The inhibitory effect of a test compound (expressed as percentage of inhibition, % Inh.) was calculated using the following formula: […]
where Ro is the average retention of hybrids in the 16 identical control reactions in columns 1 and 7 and Rx is the hybrids retained in the presence of a test drug, x.
as §1
A plasmid containing the target sequence following the bacteriophage SP6 promoter was used as a template for the synthesis of radiolabeled εRNA using [α^32 P]-UTP and SP6 RNA polymerase as described by the suppliers, e.g., Ambion, Austin, Tex., and by methods well known to those of ordinary skill in the art.
Compounds that inhibited the primary screening assay described above were individually titrated in the same assay at concentrations between 0.1 μM and 200 μM in the absence and presence of 60-fold excess rRNA as a non-specific competitor. […]

The IC50 is the midpoint of a concentration-inhibition curve. For `CCCCN(CCCC)c1nc(NN=C(C)c2ccc([N+](=O)[O-])cc2)nc(Nc2ccc([N+](=O)[O-])cc2)n1` [Compound 82], the “RRE + rRNA IC50 (μM)” value in the test with HIV derived RRE RNA is “inactive”. Also, in the test with HBV εRNA, the IC50 stood at 150 µM and the Specificity result was “max”.
Regarding `CCCCN(CCCC)c1nc(NN=Cc2cccc(Br)c2)nc(Nc2ccc([N+](=O)[O-])cc2)n1` [Compound 83], the “RRE + rRNA IC50 (μM)” value in the test with HIV derived RRE RNA is “inactive”. In addition, in the test on HBV εRNA, the 50% inhibitory concentration (IC50) is 185 µM and the Specificity result is recorded as “max”.
For the molecule `C(=NNc1nc(NCc2ccccc2)nc(Nc2ccccc2)n1)c1ccccc1` [Compound 84], the “RRE + rRNA IC50 (μM)” value in the test on HIV derived RRE RNA was “inactive”. Moreover, in the test on HBV εRNA, the half-maximal inhibitory concentration (IC50) is 120 µM and the Specificity entry is reported as “max”.
For `CCCCN(CCCC)c1nc(NN=Cc2ccccc2OC)nc(Nc2ccc([N+](=O)[O-])cc2)n1` [Compound 86] the same measures were “inactive”, 200 µM and “max”.
In the case of `O=[N+]([O-])c1ccc(Nc2nc(NN=Cc3c[nH]c4ccccc34)nc(N3CCCCCC3)n2)cc1` [Compound 87], the IC50 with HIV derived RRE RNA was 300 µM. Further, in the test with HBV εRNA, the concentration for half-maximal inhibition (IC50) came out at 8.1 µM and the Specificity is 37.0.
For `C(=NNc1nc(Nc2ccccc2)nc(N2CCCC2)n1)c1c[nH]c2ccccc12` [Compound 89], in the test with HIV derived RRE RNA, the half-inhibitory concentration (IC50) came to 75.3 µM. Further, in the test with HBV εRNA, the IC50 was 12.5 µM and the Specificity came to 6.0.
As for `O=[N+]([O-])c1ccc(Nc2nc(NN=Cc3cc(Br)ccc3O)nc(N3CCCCCC3)n2)cc1` [Compound 90], in the test on HIV derived RRE RNA, the IC50 came to 44.9 µM. In the test on HBV εRNA, the IC50 stood at 15 µM and the Specificity is on record as 3.0.
Consider `Cc1[nH]c2ccccc2c1C=NNc1nc(Nc2ccc([N+](=O)[O-])cc2)nc(N2CCCCCC2)n1` [Compound 92], for which the IC50 in the test with HIV derived RRE RNA came to 10.1 µM. Also, in the test on HBV εRNA, the IC50 came to 2.5 µM and the Specificity is 4.0.
Turning to `CN1CCN(c2nc(NN=Cc3cccc(Br)c3)nc(Nc3ccc([N+](=O)[O-])cc3)n2)CC1` [Compound 95], in the test on HIV derived RRE RNA, the 50% inhibitory concentration (IC50) amounted to 39 µM. Further, in the test on HBV εRNA, the IC50 came to 13.7 µM and the Specificity turned out to be 2.8.
For `O=[N+]([O-])c1ccc(Nc2nc(NN=Cc3c(O)ccc4ccccc34)nc(N3CCOCC3)n2)cc1` [Compound 96] the same measures were 75 µM, 15 µM and 5.0.
Consider `O=[N+]([O-])c1ccc(Nc2nc(NN=Cc3cc(Cl)ccc3O)nc(N3CCOCC3)n2)cc1` [Compound 106], for which the IC50 with HIV derived RRE RNA turned out to be 70.1 µM. Further, in the test on HBV εRNA, the IC50 came out at 12.1 µM and the Specificity was 5.8.
For the molecule `O=[N+]([O-])c1ccc(Nc2nc(NN=Cc3cc(Br)ccc3O)nc(N3CCOCC3)n2)cc1` [Compound 107], the concentration for half-maximal inhibition (IC50) in the test on HIV derived RRE RNA was 25 µM. Besides, in the test on HBV εRNA, the IC50 worked out at 14.9 µM and the Specificity came out at 1.7.
For the molecule `O=[N+]([O-])c1ccc(Nc2nc(NN=Cc3cc(I)ccc3O)nc(N3CCCCC3)n2)cc1` [Compound 108], the IC50 in the test on HIV derived RRE RNA was 40 µM; with HBV εRNA, 16.1 µM. For the same molecule, the Specificity in the test on HBV εRNA is reported as 2.5.
Regarding `Cc1cc(I)cc(C=NNc2nc(Nc3ccc([N+](=O)[O-])cc3)nc(N3CCCCC3)n2)c1O` [Compound 109], the IC50 in the test with HIV derived RRE RNA stood at 35 µM. In the test with HBV εRNA, the half-inhibitory concentration (IC50) was found to be 20 µM and the Specificity is 1.8.
Turning to `O=[N+]([O-])c1ccc(Nc2nc(NN=Cc3ccccc3)nc(N3CCOCC3)n2)cc1` [Compound 110], in the test with HIV derived RRE RNA, the IC50 stood at 79.9 µM. In the test on HBV εRNA, the half-inhibitory concentration (IC50) is 20 µM and the Specificity is on record as 4.0.
The corresponding values for `O=[N+]([O-])c1ccc(Nc2nc(NN=Cc3ccc(O)cc3)nc(N3CCCCC3)n2)cc1` [Compound 111] are 460 µM, 23 µM and 20.0.
With `Cc1ccccc1Nc1nc(NN=Cc2ccc(-c3ccc([N+](=O)[O-])cc3)o2)nc(Nc2ccc([N+](=O)[O-])cc2)n1` [Compound 112], the half-maximal inhibitory concentration (IC50) in the test on HIV derived RRE RNA was found to be 751 µM. Moreover, in the test with HBV εRNA, the IC50 stood at 25 µM and the Specificity came to 30.0.
Regarding `CCCCN(CCCC)c1nc(NN=Cc2cc3c(cc2Br)OCO3)nc(Nc2ccc([N+](=O)[O-])cc2)n1` [Compound 114], the IC50 with HIV derived RRE RNA amounted to 220 µM. Moreover, in the test on HBV εRNA, the IC50 was found to be 40 µM and the Specificity stood at 5.5.
Regarding `CCN(CC)c1nc(NN=Cc2ccncc2)nc(Nc2ccc([N+](=O)[O-])cc2)n1` [Compound 115], the concentration for half-maximal inhibition (IC50) is 130 µM in the test on HIV derived RRE RNA and 75.1 µM in the test with HBV εRNA. Further, in the test with HBV εRNA, the Specificity was 1.7.
Take `O=[N+]([O-])c1ccc(Nc2nc(NN=Cc3cccc(Oc4ccc([N+](=O)[O-])cc4[N+](=O)[O-])c3)nc(N3CCCCCC3)n2)cc1` [Compound 116]: the IC50 with HIV derived RRE RNA was 25.1 µM; in the test with HBV εRNA, 20 µM. The Specificity in the test on HBV εRNA came to 1.3.
For `CC(=NNc1nc(Nc2ccc([N+](=O)[O-])cc2)nc(N2CCOCC2)n1)c1ccc([N+](=O)[O-])cc1` [Compound 118] the same measures were 50.1 µM, 25 µM and 2.0.
On to `Oc1ccc(C=NNc2nc(Nc3ccccc3)nc(N3CCCC3)n2)c(O)c1` [Compound 119], for which the IC50 with HIV derived RRE RNA came to 250 µM; in the test with HBV εRNA, 35 µM. The Specificity in the test on HBV εRNA is listed as 7.1.
As for `O=[N+]([O-])c1ccc(Nc2nc(NN=Cc3ccccc3I)nc(N3CCCCC3)n2)cc1` [Compound 124], in the test with HIV derived RRE RNA, the IC50 turned out to be 300 µM. Further, in the test on HBV εRNA, the IC50 was 29.9 µM and the Specificity is on record as 10.0.
For `COc1ccc(C=NNc2nc(Nc3ccccc3)nc(Nc3ccc(C)cc3C)n2)cc1` [Compound 126], the IC50 with HIV derived RRE RNA was 500 µM; in the test with HBV εRNA, 60.1 µM. For the same molecule, the Specificity in the test on HBV εRNA is 8.3.
Regarding `Clc1ccccc1C=NNc1nc(Nc2ccccc2)nc(N2CCCC2)n1` [Compound 127], the IC50 in the test on HIV derived RRE RNA and in the test with HBV εRNA was 80 µM each time. Moreover, in the test on HBV εRNA, the Specificity was found to be 1.0.
Consider `Cc1[nH]c2ccccc2c1C=NNc1nc(Nc2ccc([N+](=O)[O-])cc2)nc(N2CCOCC2)n1` [Compound 128], for which the values for the 50% inhibitory concentration (IC50) in the test on HIV derived RRE RNA and in the test on HBV εRNA were 99.9 µM and 22 µM, respectively. Moreover, the Specificity in the test with HBV εRNA is on record as 4.5.
Regarding `CCOc1ccc(C=NNc2nc(Nc3ccc([N+](=O)[O-])cc3)nc(N3CCCCC3)n2)cc1O` [Compound 129], the IC50 with HIV derived RRE RNA stood at 120 µM; with HBV εRNA, 25 µM. In the test on HBV εRNA, the Specificity is listed as 4.8.
As to `O=C1Nc2ccccc2C1=NNc1nc(Nc2ccc([N+](=O)[O-])cc2)nc(N2CCOCC2)n1` [Compound 130], the IC50 in the test on HIV derived RRE RNA was 400 µM; in the test on HBV εRNA, 32.9 µM. Further, in the test with HBV εRNA, the Specificity is 12.2.
